≈ marks a conversion by molar mass, not a printed value. Where “and” joins values, the source holds several entries; their conditions need not be identical. Equal values may be shown once. Read-outs that look alike come from different tables or passages of the source.
Experiments:
[1] = test system: Staphylococcus epidermidis 222; test: MIC, standard agar-dilution assay (Table IX); assay type: cell-based; conditions: read-out: MIC
Escherichia coli TEM = test: MIC, standard agar-dilution assay (Table IX); assay type: cell-based; conditions: read-out: MIC
Mycoplasma hyorhinis 29E = test: MIC, broth-dilution microtiter test (Table X); assay type: cell-based; conditions: read-out: MIC
Excerpt: (§1) The MIC's in Table X were obtained using conventional broth-dilution microtiter tests.

[2] = test system: Staphylococcus aureus 19C; test: MIC, broth-dilution microtiter test (Table X); assay type: cell-based
Excerpt: as §1

[3] = test system: Mycoplasma hyopneumoniae S5972; test: MIC, broth-dilution microtiter test (Table X); assay type: cell-based; conditions: Mesomycoplasma hyopneumoniae, read-out: MIC
Excerpt: as §1

[4] = test system: Pasteurella multocida 60A; test: MIC, broth-dilution microtiter test (Table X); assay type: cell-based; conditions: Avian isolate, read-out: MIC
Excerpt: as §1

[5] = test system: Pasteurella multocida 17E; test: MIC, broth-dilution microtiter test (Table X); assay type: cell-based; conditions: Bovine isolate, read-out: MIC
Excerpt: as §1

Mycoplasma synoviae 40A = test: MIC, broth-dilution microtiter test (Table X); assay type: cell-based; conditions: Mycoplasmopsis synoviae, read-out: MIC
Excerpt: as §1

[6] = test system: Pasteurella hemolytica 22C; test: MIC, broth-dilution microtiter test (Table X); assay type: cell-based; conditions: read-out: MIC
Excerpt: as §1

Streptococcus sp. 19F = test: MIC, broth-dilution microtiter test (Table X); assay type: cell-based; conditions: read-out: MIC
Excerpt: as §1

[7] = test system: Mycoplasma gallisepticum 29C; test: MIC, broth-dilution microtiter test (Table X); assay type: cell-based; conditions: Mycoplasmoides gallisepticum, read-out: MIC
Excerpt: as §1

[8] = test system: Haemophilus influenzae 76; test: MIC, standard agar-dilution assay (Table IX); assay type: cell-based; conditions: Haemophilus influenzae 76, Ampicillin-resistant strain, read-out: MIC
[9] = test system: Streptococcus Group D 2041; test: MIC, standard agar-dilution assay (Table IX); assay type: cell-based; conditions: GROUPD2041, read-out: MIC
Pasteurella multocida [10] = test: Pasteurella infection in one-day-old chicks, subcutaneous administration (Table XII); assay type: in vivo; conditions: Administered subcutaneously, 30 mg/kg × 2, 1 and 4 hours post-challenge
How it was run: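 One-day-old chicks were challenged subcutaneously with 0.1 ml of a 10^-4 dilution of a 20-h tryptose broth culture of avian P. multocida. Compounds were then given by subcutaneous injection at 30 mg/kg, at 1 and 4 hours post-challenge.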

[11] = test system: Staphylococcus aureus X400; test: MIC, standard agar-dilution assay (Table IX); assay type: cell-based; conditions: Staphylococcus aureus X400, Methicillin-resistant strain, read-out: MIC
Escherichia coli N10 = test: MIC, standard agar-dilution assay (Table IX); assay type: cell-based; conditions: read-out: MIC
[12] = test system: Streptococcus Group D X66; test: MIC, standard agar-dilution assay (Table IX); assay type: cell-based; conditions: read-out: MIC
[13] = test system: Haemophilus influenzae C.L.; test: MIC, standard agar-dilution assay (Table IX); assay type: cell-based; conditions: Ampicillin-sensitive strain, read-out: MIC
[14] = test system: Staphylococcus epidermidis EPI1; test: MIC, standard agar-dilution assay (Table IX); assay type: cell-based; conditions: Staphylococcus epidermidis EPI1; agar-dilution; read-out: MIC
[15] = test system: Streptococcus pyogenes C203; test: ED50 in mice experimentally infected with S. pyogenes C203 (Table XI); assay type: in vivo; conditions: Streptococcus pyogenes, doses given 1 and 4 hours postinfection, read-out: ED50
How it was run: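 Mice infected with S. pyogenes C203 received two doses of compound, 1 and 4 h post-infection. ED50 is the dose in mg/kg (per dose, ×2) protecting 50% of animals.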

[16] = test system: Staphylococcus aureus V41; test: MIC, standard agar-dilution assay (Table IX); assay type: cell-based; conditions: Staphylococcus aureus V41, Penicillin-resistant strain, read-out: MIC
[17] = test system: Staphylococcus aureus S13E; test: MIC, standard agar-dilution assay (Table IX); assay type: cell-based; conditions: Staphylococcus aureus, S13E
Escherichia coli EC14 = test: MIC, standard agar-dilution assay (Table IX); assay type: cell-based; conditions: read-out: MIC
Staphyloccus aureus X1.1 = test: MIC, standard agar-dilution assay (Table IX); assay type: cell-based, Staphylococcus aureus; conditions: Staphylococcus aureus, read-out: MIC
Klebsiella X26 = test: MIC, standard agar-dilution assay (Table IX); assay type: cell-based; conditions: read-out: MIC
[18] = test system: Streptococcus pyogenes C203; test: MIC, standard agar-dilution assay (Table IX); assay type: cell-based; conditions: read-out: MIC
[19] = Blood and tissue levels after a single injection; assay type: in vivo
Excerpt: A special advantage of this invention is that certain of the compounds are effective when administered as a single injection.

[20] = test system: Streptococcus pneumoniae Park I; test: MIC, standard agar-dilution assay (Table IX); assay type: cell-based; conditions: Streptococcus pneumoniae Park I; agar-dilution; read-out: MIC
Pasteurella multocida [21] = test: Pasteurella infection in one-day-old chicks, medicated drinking water (Table XIII); assay type: in vivo; conditions: Administered in the available drinking water at 2 g/gal
How it was run: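 One-day-old chicks were challenged subcutaneously with 0.1 ml of a 10^-4 dilution of a 20-hour tryptose broth culture of avian P. multocida. Compound was given in drinking water at 2 g/gal, available from 4 to 20 hours before challenge and throughout the 3-day test period.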

What does the source list for `CCC1OC(=O)CC(O)C(C)C(OC2OC(C)C(O)C(N(C)C)C2O)C(CCN2C[C@H](C)C[C@H](C)C2)CC(C)C(=O)C=CC(C)=CC1COC1OC(C)C(O)C(OC)C1OC` (stereo partly drawn) [Compound D34, 20-DH-DO-20-(cis-3,5-dimethylpiperidine-1-yl)desmycosin]?
MIC [1]: 0.25 µg/mL (≈ 0.288 µM); MIC (Escherichia coli TEM): 32 µg/mL (≈ 36.8 µM); MIC (Mycoplasma hyorhinis 29E): 12.5 µg/mL (≈ 14.4 µM); MIC [2]: 3.12 µg/mL (≈ 3.59 µM); MIC [3]: 0.78 µg/mL (≈ 0.897 µM); MIC [4]: 12.5 µg/mL (≈ 14.4 µM); MIC [5]: 12.5 µg/mL (≈ 14.4 µM); MIC (Mycoplasma synoviae 40A): 0.78 µg/mL (≈ 0.897 µM); MIC [6]: 6.25 µg/mL (≈ 7.19 µM); MIC (Streptococcus sp. 19F): 3.12 µg/mL (≈ 3.59 µM); MIC [7]: 0.195 µg/mL (≈ 0.224 µM); MIC [8]: 4 µg/mL (≈ 4.6 µM); MIC [9]: 8 µg/mL (≈ 9.2 µM); Number of Deaths/Number Treated (Pasteurella multocida [10]): 3/10; MIC [11]: 1 µg/mL (≈ 1.15 µM); MIC (Escherichia coli N10): 128 µg/mL (≈ 147 µM); MIC [12]: 4 µg/mL (≈ 4.6 µM); MIC [13]: 16 µg/mL (≈ 18.4 µM); MIC [14]: 0.5 µg/mL (≈ 0.575 µM); ED50 ([15]; C203, Oral): 7.98 mg/kg; ED50 ([15]; C203, sc, Subcutaneous): < 0.625 mg/kg; MIC [16]: 1 µg/mL (≈ 1.15 µM); MIC [17]: 0.5 µg/mL (≈ 0.575 µM); MIC (Escherichia coli EC14): 128 µg/mL (≈ 147 µM); MIC (Staphyloccus aureus X1.1): 1 µg/mL (≈ 1.15 µM); MIC (Klebsiella X26): 64 µg/mL (≈ 73.6 µM); MIC [18]: 0.5 µg/mL (≈ 0.575 µM); measurable blood and tissue levels of the drug [19]: prolonged measurable blood and tissue levels of the drug for as long as seven days; MIC [20]: 2 µg/mL (≈ 2.3 µM); Number of Deaths/Number Treated (Pasteurella multocida [21]): 3/10 and 0/10 and 1/10 and 6/10

Source: US4820695A, “C-20-dihydro-deoxy-(cyclic amino)-derivatives of macrolide antibiotics” (priority 1987, dated 1989)
